Entries after “also recorded” stand apart in the source; their conditions may differ.
What was measured:
[1] = tested on: Ehrlich Ascites Tumor (EAT); assay: Anti tumor activity on solid Ehrlich Ascites Tumor (EAT) bearing mice; type: in vivo; conditions: for % Tumor growth inhibition / Tumor Weight (mg) Mean ± SE: day 13; for mortality of test animals: EAT bearing mice
Text: (§1) Non-inbred swiss albino mice from an in-house colony were used in the present study. The breeding and experimental animals were housed in standard size polycarbonate cages providing internationally recommended space for each animal. Animals were fed balanced mice feed supplied by MIs Ashirwad Industries, Chandigarh (India) and autoclaved water was available ad libitum. Animals were cared as per the guide for the care and use of laboratory animals (1996), ILAR, Washington D.C. They were housed in controlled conditions of temperature (23±2° C.), humidity (50-60%) and 12:12 hrs of light: dark cycle. The study and the number of animals used were approved by the institutional animal ethics committee, IIIM, Jammu, India. The study was conducted as per the protocols of National Cancer Institute (NCl), USA (Geran et al., 1972).
Parthenin and its derivative Compound-17 were evaluated against solid Ehrlich Ascites Tumor (EAT) models at different doses. A standard procedure for experiment was as followed:
Animals of the same sex weighing 20±3 g were injected 1×10^7 cells collected from the peritoneal cavity of non-inbred swiss mice, bearing 8-10 days old tumor cells, into the right thigh, intramuscularly (on Day 1). On next day animals were randomized and divided into test groups (7 animals in each test group) and one tumor control group (10 animals). Test groups were treated with different doses of Parthenin (10 mg/kg, 25 mg/kg and 50 mg/kg) and its derivative Compound-17 (10 mg/kg, 25 mg/kg and 50 mg/kg, 100 mg/kg and 200 mg/kg) suspension in 1% gum acacia in, their respective group intraperitonealy for nine consecutive days. Another test group was administered 5-FU @ 22 mg/kg i.p and served as positive control. The tumor contra group was similarly administered normal saline (0.2 ml i.p). The percent tumor growth-inhibition was measured on day 13 with respect to their tumor weight (Geran et al., 1972): Shortest and longest diameters of the tumor mass were measured with the help of vernier caliper and tumor weight (mg) was calculated by using following formula Tumor weight (mg)=Length (mm)×(Width (mm)^2/2 The average tumor weight for each group was calculated and the percent tumor growth inhibition in treated groups was calculated as follows: % Tumor Growth Inhibition=100×(Average tumor weight of control group−Average tumor weight of test group)/Average tumor weight of control group Anti Tumor Activity of Parthenin and its Derivative Compound-17 on Ehrlich Ascites Carcinoma (EAC)

[2] = tested on: Ehrlich Ascites Carcinoma (EAC); assay: Anti tumor activity on Ehrlich Ascites Carcinoma (EAC) bearing mice; type: in vivo; conditions: for % Tumor growth inhibition / Ascitic fluid volume (ml) Mean ± SE / Tumor cells in ascitic fluid (×10^7) Mean ± SE: day 12; for mortality of test animals: EAC bearing mice
Text: as §1
Ehrlich Ascites Carcinoma (EAC) was propagated by transplanting 1×10^7 cells from an animal bearing 8-10 days old Ehrlich Ascites Carcinoma, into the peritoneal cavity of non-inbreed swiss mice. For testing, mice of the same sex weighing 20 ±3 g bearing ascites tumor were selected. 1×10^7 cells obtained from an animal bearing 8-10 days old ascites tumor were injected into peritoneal cavity of all animals used for testing (0 Day). On next day animals were randomized and divided into test groups (7 animals in each test group) and one tumor control group (10 animals). Test groups were treated with different doses of Parthenin (10 mg/kg, 25 mg/kg and 50 mg/kg) and its derivative Compound-17 (10 mg/kg, 25 mg/kg and 50 mg/kg, 100 mg/kg and 200 mg/kg) suspension in 1% gum acacia in their respective group intraperitonealy for nine consecutive days. Another test group was administered 5 FU @ 20 mg/kg i.p and served as positive control. The tumor control group was similarly administered normal saline (0.2 ml i.p). The percent tumor growth inhibition were measured on day 12 with respect to volume of ascitic fluid and the number of tumor cells in the ascitic fluid of peritoneal cavity (Geran et al., 1972; Singh et al., 2007).
The percent tumor growth inhibition was calculated as follow. % growth inhibition=100×(Average no. of cells in control group−Average no. of cells in test group)/Average no. of cells in control group Results: […]

SW-620 = assay: In vitro cytotoxicity screening (sulphodamine B dye), SW-620; type: cell-based; conditions: Homo sapiens; SW-620 colon cancer cell line
Description: (§2) Cells at sub confluent stage were harvested from the flask by treatment with trypsin (0.5% in PBS containing 0.02% EDTA) for determination of cytotoxicity. […] The cell suspensions of required cell density were prepared in complete growth medium with gentamycin (50 μg/ml) for determination of cytotoxicity. The cells (100 μl/well) were inoculated in 96 well tissue culture plates. The cells were allowed to grow for 24 hrs temperature of 37° C. and in a humidified atmosphere of 5% CO2 in air. Stock solution of (20 mM) of test material was prepared in DMSO. The stock solution was serially diluted with complete growth medium containing 50 μg/ml of gentamycin to obtain […] working test solutions of 1., 2, 5, 10, 50 and 100 μM.
(§3) The media were supplemented with FCS (10%), penicillin (100 Units/ml), streptomycin (100 μg/ml) and glutamine (2 mM) and cells were grown in CO2 incubator (Hera cell, Heraeus, USA) at 37° C. with 90% humidity and 5% CO2.

DU-145 = assay: In vitro cytotoxicity screening (sulphodamine B dye), DU-145; type: cell-based; conditions: Homo sapiens; DU-145 prostate cancer cell line
Description: as §2, §3

PC-3 = assay: In vitro cytotoxicity screening (sulphodamine B dye), PC-3; type: cell-based; conditions: Homo sapiens; PC-3 prostate cancer cell line
Description: as §2, §3

Compound | % Tumor growth inhibition ([1]; 22 mg/kg i.p.) [%] | Tumor Weight (mg) Mean ± SE ([1]; 22 mg/kg i.p.) [mg] | % Tumor growth inhibition ([2]; 20 mg/kg i.p.) [%] | Ascitic fluid volume (ml) Mean ± SE ([2]; 20 mg/kg i.p.) [mL] | Tumor cells in ascitic fluid (×10^7) Mean ± SE ([2]; 20 mg/kg i.p.) | IC50 (SW-620) [µM] | IC50 (DU-145) [µM] | IC50 (PC-3) [µM] | % Tumor growth inhibition ([1]; 10 mg/kg i.p., nine days) [%] | Tumor Weight (mg) Mean ± SE ([1]; 10 mg/kg i.p., nine days) [mg] | mortality of test animals ([1]; 25 mg/kg i.p.) | mortality of test animals ([1]; 50 mg/kg i.p.) | % Tumor growth inhibition ([2]; 10 mg/kg i.p., nine days) [%] | Ascitic fluid volume (ml) Mean ± SE ([2]; 10 mg/kg i.p., nine days) [mL] | Tumor cells in ascitic fluid (×10^7) Mean ± SE ([2]; 10 mg/kg i.p., nine days) | mortality of test animals ([2]; 25 mg/kg i.p.) | mortality of test animals ([2]; 50 mg/kg i.p.)
O=c1[nH]cc(F)c(=O)[nH]1 [Compound 5-FU, 5-Fluorouracil, reference compound] | 51.28 | 832.28 ± 35.21 | 100 | 0 | 0 ×10^7 | – | – | – | – | – | – | – | – | – | – | – | –
C=C1C(=O)O[C@@H]2[C@H]1CC[C@H](C)[C@]1(O)C=CC(=O)[C@@]21C [Parthenin] | – | – | – | – | – | 38.7 | 31.1 | 40.3 | 9.69 | 1542.86 ± 35.24 | mortality of all the animals; also recorded: All animals died by 4th day | mortality of all the animals; also recorded: All animals died by 2nd day | 12.01 | 3.92 ± 0.38 | 74.71 ± 2.77 ×10^7 | mortality of all the test animals; also recorded: All animals died by 4th day | mortality of all the test animals; also recorded: All animals died by 2nd day

From patent US8609858B2, “Spiro derivatives of parthenin as novel anticancer agents” (Council of Scientific & Industrial Research, priority 2008, dated 2013)
